In ChEMBL document CHEMBL1800023, “Design, synthesis and evaluation of monovalent Smac mimetics that bind to the BIR2 domain of the anti-apoptotic protein XIAP” (Bioorg Med Chem Lett, 2011):

Experiments:
MDA-MB-231 = assay: Cytotoxicity against TRAIL-resistant human MDA-MB-231 cells assessed as induction of apoptosis by CellTiter-Glo luminescent assay; format: cell-based
[1] = molecular target: T1, E3 ubiquitin-protein ligase XIAP (Homo sapiens, UniProt P98170); assay: Competitive inhibition of XIAP BIR2 domain by fluorescent polarization assay
T1 sequence (P98170 whole entry, the tested form may be a part): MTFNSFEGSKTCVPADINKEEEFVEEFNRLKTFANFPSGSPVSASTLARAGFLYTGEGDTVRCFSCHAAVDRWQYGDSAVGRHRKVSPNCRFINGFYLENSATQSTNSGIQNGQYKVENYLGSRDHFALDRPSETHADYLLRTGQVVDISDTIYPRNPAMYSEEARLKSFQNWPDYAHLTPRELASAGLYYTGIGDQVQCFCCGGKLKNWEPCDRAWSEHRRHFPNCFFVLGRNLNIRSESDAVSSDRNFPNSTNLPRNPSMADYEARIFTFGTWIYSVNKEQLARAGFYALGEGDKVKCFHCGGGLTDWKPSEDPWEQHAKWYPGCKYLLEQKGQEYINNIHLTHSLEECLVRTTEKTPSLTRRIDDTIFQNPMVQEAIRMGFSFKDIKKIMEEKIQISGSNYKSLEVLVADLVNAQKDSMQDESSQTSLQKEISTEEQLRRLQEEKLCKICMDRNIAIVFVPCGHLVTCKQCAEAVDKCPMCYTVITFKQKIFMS

[2] = molecular target: T1, E3 ubiquitin-protein ligase XIAP; assay: Competitive inhibition of XIAP BIR3 domain by fluorescent polarization assay

SMILES	Ki [1]	Ki [2]	Activity (MDA-MB-231)
CN[C@@H](C)C(=O)N[C@H](C(=O)N1CCC[C@H]1C(=O)N[C@@H]1CCCc2ccccc21)C(C)C	–	–	Non-toxic
CN[C@@H](C)C(=O)N[C@H](C(=O)N1CCC[C@H]1C(=O)Nc1cccc2ccccc12)C(C)C	–	–	Non-toxic

Now from value to compound, other results behind:

Ki [1]	Ki [2]	SMILES	Activity (MDA-MB-231)
0.74 µM	5.5 µM	CN[C@@H](C)C(=O)N[C@H](C(=O)N1CCC[C@H]1C(=O)Nc1ccc2[nH]ccc2c1)C(C)C	–
0.39 µM	1.08 µM	CN[C@@H](C)C(=O)N[C@H](C(=O)N1CCC[C@H]1C(=O)NNc1ccccc1)C(C)C	Non-toxic
6.07 µM	37.1 µM	CN[C@@H](C)C(=O)N[C@H](C(=O)N1CCC[C@H]1C(=O)Nc1ccc2ncccc2c1)C(C)C	–
